Results from patent publication US5470858A, “Derivatives of (hetero)aromatic ethers and thioethers having antihyperlipidemic activity, process for their preparation and pharmaceutical compositions containing them” (Pierrel SpA, priority 1991, dated 1995).
Counter-ions that a name gives are not always drawn. Like-named read-outs stand apart in the source and are kept apart here.

What was measured:
Assay type in all cases: in vivo
[1] = tested on: hyperlipaemic SD male rats; test: Hypolipemizing activity, 5 days experimental model, modified Nath diet; settings: rat, oral; for change in vivo at 100 mg/kg/day / change in vivo at 300 mg/kg/day: 120 h; for Hepatic index (percent variation vs hyperlipaemic controls): index = (Liver weight/body weight) × 100
Description: The hypolipemizing activity of the compounds of the present invention has been evaluated in the rat using SD male animals (Charles River) of an initial weight of 150 g, housed in controlled environment at a temperature of 21°±1° C., relative humidity 60% and a 12 hours light/dark cycle.
Experimental models have been used in which the animals are rendered hiperlipaemic by "ad libitum" food administration with a modified Nath diet (Atherosclerosis 30, 1978, pag. 45-46) having the following composition: […]
hydrogenated coconut oil
In the first model the animals have been fed with this diet for 5 consecutive days, during which they received the pharmacological treatment once a day by oral route and were sacrificed 2 hours after the last administration.
At the time of the sacrifice the blood was removed, for the lipid determination, as well as the liver the weight of which was the index of a possible hepatomegaly.
By this experimental model the concentration of the serum lipids attained very high values which, in the control group, was four times the normal values for the total cholesterol and the triglycerides.
The determination of the triglycerides, of the total cholesterol and of the cholesterol associated to the HDL has been effected by means of a commercial enzymatic kit. The concentration of the cholesterol associated to VLDL+LDL has been determined by difference between total cholesterol and HDL.
The results obtained in the experimental model of the 5 days duration for some compounds representative of the invention are reported in the following table 1. The data are expressed as percent variation with respect to the hyperlipaemic controls to which carboxymethylcellulose as 0.5% in water at the dose of 10 ml/kg/day by oral route was administered. The same vehicle was used for the suspension of the tested compounds at the doses of 100 and 300 mg/kg/day by oral route.

catalase enzyme = test: Hepatic tolerability, 15 days at high dose: catalase enzyme activity in liver (index of peroxysomes proliferation); settings: rat liver, 200 mg/kg, standard; absolute values; solvent 539,8
Description: (§1) The hypolipemizing activity of the compounds of the present invention has been evaluated in the rat using SD male animals (Charles River) of an initial weight of 150 g, housed in controlled environment at a temperature of 21°±1° C., relative humidity 60% and a 12 hours light/dark cycle. The animals were fasted with this diet for 15 days consecutively, during which they received the pharmacological treatment once a day by oral route and were sacrificed 24 hours after the last administration. At the sacrifice time the blood was removed for the lipid determination and the liver was removed as well to be weighed and used for the evaluation of the catalase enzyme as the index of the peroxysomes proliferation and thus of hepatotoxicity. In order to evaluate the hepatic tolerability of the compounds of interest they have been administered for 15 days at a high dose (300 mg/kg/day) according to the same conditions of the previous experiment.24 hours after the last treatment the animals have been sacrificed, and the liver has been removed and stored at -20° C. up to the time of dosing the activity of the catalase enzyme (Methods of enzymatic analysis, vol.2, pag. 673, 1974 edit. H. U. Bergmeyer, Verlag Chemie International).

liver = test: Hepatic tolerability, 15 days at high dose: hepatic index; settings: rat, 200 mg/kg, standard; absolute values; solvent 5,4
Description: as §1

[2] = 100 mg/kg/day, by difference between total and HDL, read-out: Cholesterol VLDL + LDL (percent variation vs hyperlipaemic controls)
[3] = 100 mg/kg/day, read-out: Cholesterol HDL (percent variation vs hyperlipaemic controls)
[4] = 100 mg/kg/day, read-out: Total Cholesterol (percent variation vs hyperlipaemic controls)
[5] = 100 mg/kg/day, read-out: Triglycerides (percent variation vs hyperlipaemic controls)
[6] = 300 mg/kg/day, by difference between total and HDL, read-out: Cholesterol VLDL + LDL (percent variation vs hyperlipaemic controls)
[7] = 300 mg/kg/day, read-out: Cholesterol HDL (percent variation vs hyperlipaemic controls)
[8] = 300 mg/kg/day, read-out: Total Cholesterol (percent variation vs hyperlipaemic controls)
[9] = 300 mg/kg/day, read-out: Triglycerides (percent variation vs hyperlipaemic controls)

Row | SMILES | change in vivo at 100 mg/kg/day [1, 2] [%] | change in vivo at 100 mg/kg/day [1, 3] [%] | change in vivo at 100 mg/kg/day [1, 4] [%] | change in vivo at 100 mg/kg/day [1, 5] [%] | change in vivo at 300 mg/kg/day [1, 6] [%] | change in vivo at 300 mg/kg/day [1, 7] [%] | change in vivo at 300 mg/kg/day [1, 8] [%] | change in vivo at 300 mg/kg/day [1, 9] [%] | Hepatic index (percent variation vs hyperlipaemic controls) ([1]; 100 mg/kg/day) | Hepatic index (percent variation vs hyperlipaemic controls) ([1]; 300 mg/kg/day) | Catalase enzyme activity (catalase enzyme) | Hepatic index (Liver weight/body weight) × 100 (liver)
1 | CC(C)COC(=O)c1ccc(OCC(CSc2nc3ccccc3o2)OC(=O)c2cccnc2)cc1 (centres unmarked) [Example 12] | 11.5 | 12.5 | 11.6 | -19 | -8.9 | 8.6 | -7.8 | -39.4 | -3,9% | -10,8% | – | –
2 | CC(C)COC(=O)c1ccc(OCC(=O)CSc2nc3c([nH]2)c(=O)n(C)c(=O)n3C)cc1 [Example 3] | -1.3 | 11.7 | -1.1 | -6.5 | -10.7 | 3.5 | -10.5 | -5.8 | +3,2% | -1,5% | – | –
3 | CCOC(=O)C(C)(C)Oc1ccc(Cl)cc1 [Clofibrate, reference compound] | – | – | – | – | – | – | – | – | – | – | 680,9 umoli/min/mg proteins | 7,0
4 | CC(C)COC(=O)c1ccc(OCCSc2nc3c(N)ncnc3n2[C@@H]2O[C@H](CO)[C@@H](O)[C@H]2O)cc1 [Example 27] | -14.6 | 0.1 | -13.6 | -0.4 | -19.3 | 5.7 | -18.4 | -10.2 | +0,8% | +0,7% | – | –
5 | CC(C)COC(=O)c1ccc(OCC(CSc2nc3c(N)ncnc3n2[C@@H]2O[C@H](CO)[C@@H](O)[C@H]2O)=NO)cc1 [Example 31] | -6.6 | 3.2 | -0.3 | 14.7 | -25.7 | -5.1 | -24.7 | -0.7 | +3,6% | -1,5% | – | –
6 | CC(C)COC(=O)c1ccc(OCC(O)CSc2nc3ccccc3[nH]2)cc1 (centres unmarked) [Example 18] | 0.2 | 3.2 | 1 | -19 | 9 | 6.5 | 9.1 | -13.1 | +3,8% | +3,9% | – | –
7 | CC(C)COC(=O)c1ccc(OCC(O)CSc2nccn2C)cc1 (centres unmarked) [Example 4, 1-methyl-2-[3-[(p-isobutyloxycarbonyl)-phenoxy]-2-hydroxy-propylthio]-imidazole hydrochloride] | 9.2 | -3.4 | 7.7 | -5.9 | -4 | 8.2 | -2.6 | 0.2 | +2,2% | +4,3% | – | –
8 | CC(C)COC(=O)c1ccc(OCC(O)CSc2ncccn2)cc1 (centres unmarked) [Example 5, 2-[3-[(p-isobutyloxycarbonyl)-phenoxy]-2-hydroxy-propylthio]-pirimidine hydrochloride] | 24 | -17.7 | 22.3 | 13.8 | -20.7 | -8.5 | -20.3 | -14.9 | -4,1% | -5,7% | – | –
9 | CC(C)COC(=O)c1ccc(OCC(O)CSc2nc3cc(Cl)ccc3s2)cc1 (centres unmarked) [Example 10, 2-[3-[(p-isobutyloxycarbonyl)-phenoxy]-2-hydroxy-propylthio]5-chloro-benzothiazole] | -20.4 | 5.5 | -18.6 | -8.5 | -26.4 | 17.3 | -23.3 | -26.3 | -2,2% | -0,6% | – | –
10 | CC(C)COC(=O)c1ccc(OCC(=O)CSc2nc3ccccc3o2)cc1 [Example 1, 2-[3-[(p-isobutyloxycarbonyl)-phenoxyl]-2-oxo-propylthio]-benzoxazole] | -6.1 | 2.6 | -5.7 | -27.6 | -6.4 | 17.9 | -5.2 | -18.4 | -8,5% | -2,5% | – | –
11 | CC(C)COC(=O)c1ccc(OCC(O)CSc2nc3cc4ccccc4cc3o2)cc1 (centres unmarked) [Example 15] | 17.6 | 0.8 | 16.5 | 5 | -9.8 | 13.4 | -8.2 | 5.2 | -2,6% | +0,6% | – | –
12 | CC(C)COC(=O)c1ccc(OCCCSc2nc3c(N)ncnc3n2[C@@H]2O[C@H](CO)[C@@H](O)[C@H]2O)cc1 [Example 25] | -10 | -1.2 | -9.7 | -3.3 | -4.8 | -7.1 | -5.2 | 15.7 | -1,1% | -2,8% | – | –
13 | CCOc1ccc2nc(SCC(O)COc3ccc(C(=O)OCC(C)C)cc3)sc2c1 (centres unmarked) [Example 9, 2-[3-[(p-isobutyloxycarbonyl)-phenoxy]-2-hydroxy-propylthio]6-ethoxy-benzothiazole] | 0.9 | 2.4 | 1 | 0.9 | -7 | -0.2 | -6.5 | 2.8 | -0,8% | -1,2% | – | –
